The target of this experiment is Neuraminidase (Influenza A virus, UniProt Q6Q793).

The IC50 is the concentration that inhibits the measured activity by half. A low value points to greater potency in that assay. The molecule `CCOP(=O)(O)C1=C[C@@H](OC(CC)CC)[C@H](NC(C)=O)[C@@H](N)C1` [TAMIPHOSPHOR MONOETHYL ESTER] returned an IC50 of 2.2 nM.
Next, `CCC(CC)O[C@@H]1C=C(P(=O)(O)O)C[C@H](NC(=N)N)[C@H]1NC(C)=O`: 0.04 nM.

The record behind these values is ChEMBL document CHEMBL2203066 (J Med Chem, 2012).
